Source: patent publication US20060069132A1, “Azolecarboxamide herbicides” (priority 2004, published 2006)

Legend:
lambsquarters = experiment: Test C pre-/postemergence herbicide test; format: in vivo, Chenopodium album
In short: (§1)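 Greenhouse-grown plants were evaluated visually 12 to 14 days after treatment, with 100 meaning complete control and 0 no effect. Application was preemergence, or postemergence at 2 to 18 cm.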

large crabgrass = experiment: Test C pre-/postemergence herbicide test; format: in vivo, Digitaria sanguinalis
In short: as §1

kochia = experiment: Test C pre-/postemergence herbicide test; format: in vivo, Kochia scoparia
In short: as §1

wild oat = experiment: Test B postemergence herbicide test; format: in vivo, Avena fatua
In short: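 Treated at 2-leaf (paddy) or 1–4-leaf, 2–18 cm (postemergence); greenhouse 13–15 d; visual score vs control, 0 none to 100 complete control; dash = not tested.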

common ragweed = experiment: Test C pre-/postemergence herbicide test; format: in vivo, Ambrosia elatior; parameters: key to Plant response rating, Ragweed: 0 = no effect, 100 = complete control
In short: as §1

goosegrass = experiment: Test C pre-/postemergence herbicide test; format: in vivo, Eleusine indica
In short: as §1

pigweed [1] = experiment: Test C pre-/postemergence herbicide test; format: in vivo, Amaranthus retroflexus
In short: as §1

pigweed [2] = experiment: Test B pre-/postemergence herbicide test; format: in vivo, Amaranthus retroflexus
In short: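 Flooded paddy rice and barnyardgrass were treated at the 2-leaf stage; upland plantings received compound either on sown seed or on 1- to 4-leaf seedlings. All were kept 13–15 days in a greenhouse and scored visually, 0–100, relative to untreated plants.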

[3] = 62 g ai/ha, preemergence, scale 0 to 100
[4] = 125 g ai/ha, scale 0 (no effect) to 100 (complete control), visual, 12 to 14 days, preemergence
[5] = Preemergence, 500 g ai/ha, scale 0 to 100, 0 no effect, 100 complete control
[6] = 250 g ai/ha, scale 0 to 100 (0 no effect, 100 complete control), visual, 12 to 14 days, preemergence
[7] = Postemergence, 250 g ai/ha, scale 0 (no effect) to 100 (complete control)
[8] = postemergence, 62 g ai/ha, scale 0 to 100
[9] = postemergence, 125 g ai/ha, visual rating, scale 0 (no effect) to 100 (complete control)
[10] = postemergence, 500 g ai/ha, visual rating, scale 0 (no effect) to 100 (complete control)
[11] = 125 g ai/ha, 0 = no effect, 100 = complete control, preemergence
[12] = 250 g ai/ha, scale 0-100, preemergence
[13] = 500 g ai/ha, scale 0 to 100 (0 no effect, 100 complete control), visual, 12 to 14 days, preemergence
[14] = 125 g ai/ha, visual rating, scale 0 (no effect) to 100 (complete control), postemergence
[15] = postemergence, 500 g ai/ha, scale 0 to 100, 0 is no effect, 100 is complete control
[16] = 500 g ai/ha, visual rating, 0 = no effect, 100 = complete control, preemergence
[17] = Postemergence, 500 g ai/ha, scale 0 to 100
[18] = Postemergence, 250 g ai/ha, scale 0 to 100, 0 no effect, 100 complete control
[19] = postemergence, 125 g ai/ha, scale 0 to 100

CCNC(=O)c1ccnc(NC(=O)c2cc(C(C)(C)C)nn2CC)c1 [Compound 152]
Plant response rating, Lambsquarters (lambsquarters; [3]): 100 | Plant response rating, Lambsquarters (lambsquarters; [4]): 100 | Lambsquarters plant response rating (lambsquarters; [5]): 100 | Plant response rating, Crabgrass, Large (large crabgrass; [3]): 100 | Plant response rating, Crabgrass, Large (large crabgrass; [4]): 100 | Plant response rating, Crabgrass, Large (large crabgrass; [6]): 100 | Crabgrass, Large plant response rating (large crabgrass; [5]): 100 | Plant response rating, Kochia (kochia; [3]): 100 | Plant response rating, Kochia (kochia; [4]): 100 | Kochia plant response rating (kochia; [5]): 100 | Oat, Wild plant response rating (wild oat; [7]): 20 | Oat, Wild plant response rating (wild oat; [8]): 10 | Plant response rating, Ragweed (common ragweed; [3]): 85 | Plant response rating, Ragweed (common ragweed; [4]): 85 | Ragweed plant response rating (common ragweed; [5]): 100 | Plant response rating, Goosegrass (goosegrass; [3]): 80 | Plant response rating, Goosegrass (goosegrass; [4]): 100 | Goosegrass plant response rating (goosegrass; [5]): 100 | Plant response rating, Pigweed (pigweed [1]; [3]): 85 | Plant response rating, Pigweed (pigweed [1]; [4]): 100 | Pigweed plant response rating (pigweed [1]; [5]): 100 | Pigweed plant response rating (pigweed [2]; [7]): 90 | Pigweed plant response rating (pigweed [2]; [8]): 50

CCc1nn(C(C)(C)C)cc1C(=O)Nc1cccc(C(C)=NO)c1 [Compound 188]
Plant response rating, Lambsquarters (lambsquarters; [3]): 95 | Plant response rating, Lambsquarters (lambsquarters; [4]): 100 | Lambsquarters plant response rating (lambsquarters; [5]): 100 | Plant response rating, Crabgrass, Large (large crabgrass; [3]): 95 | Plant response rating, Crabgrass, Large (large crabgrass; [4]): 95 | Plant response rating, Crabgrass, Large (large crabgrass; [6]): 95 | Crabgrass, Large plant response rating (large crabgrass; [5]): 100 | Plant response rating, Kochia (kochia; [3]): 0 | Plant response rating, Kochia (kochia; [4]): 0 | Kochia plant response rating (kochia; [5]): 95 | Oat, Wild plant response rating (wild oat; [9]): 20 | Oat, Wild plant response rating (wild oat; [10]): 20 | Plant response rating, Ragweed (common ragweed; [3]): 0 | Plant response rating, Ragweed (common ragweed; [4]): 65 | Ragweed plant response rating (common ragweed; [5]): 100 | Plant response rating, Goosegrass (goosegrass; [3]): 15 | Plant response rating, Goosegrass (goosegrass; [4]): 70 | Goosegrass plant response rating (goosegrass; [5]): 90 | Plant response rating, Pigweed (pigweed [1]; [3]): 95 | Plant response rating, Pigweed (pigweed [1]; [4]): 95 | Pigweed plant response rating (pigweed [1]; [5]): 100 | Pigweed plant response rating (0 to 100 scale) (pigweed [2]; [11]): 40 | Plant response rating, Pigweed (pigweed [2]; 500 g ai/ha, visual rating 0-100, 0 no effect, 100 complete control, preemergence): 70 | Pigweed plant response rating (pigweed [2]; [9]): 50 | Pigweed plant response rating (pigweed [2]; [10]): 70

CCn1nc(C2(C)CC2)cc1C(=O)Nc1cccc(C(=O)N2CC=CC2)c1 [Compound 304]
Plant response rating, Lambsquarters (lambsquarters; [3]): 0 | Plant response rating, Lambsquarters (lambsquarters; [4]): 100 | Plant response rating, Lambsquarters (lambsquarters; [12]): 100 | Plant response rating, Lambsquarters (lambsquarters; [13]): 100 | Plant response rating, Crabgrass, Large (large crabgrass; [3]): 35 | Plant response rating, Crabgrass, Large (large crabgrass; [4]): 100 | Plant response rating, Crabgrass, Large (large crabgrass; [12]): 100 | Plant response rating, Crabgrass, Large (large crabgrass; [13]): 100 | Plant response rating, Kochia (kochia; [4]): 80 | Plant response rating, Kochia (kochia; [12]): 85 | Plant response rating, Kochia (kochia; [13]): 100 | Oat, Wild plant response rating (wild oat; [14]): 30 | Oat, Wild plant response rating (wild oat; [15]): 40 | Plant response rating, Ragweed (common ragweed; [3]): 0 | Plant response rating, Ragweed (common ragweed; [12]): 70 | Plant response rating, Ragweed (common ragweed; [13]): 70 | Plant response rating, Goosegrass (goosegrass; [3]): 45 | Plant response rating, Goosegrass (goosegrass; [4]): 85 | Plant response rating, Goosegrass (goosegrass; [12]): 90 | Plant response rating, Goosegrass (goosegrass; [13]): 100 | Plant response rating, Pigweed (pigweed [1]; [3]): 100 | Plant response rating, Pigweed (pigweed [1]; [4]): 100 | Plant response rating, Pigweed (pigweed [1]; [12]): 100 | Plant response rating, Pigweed (pigweed [1]; [13]): 100 | Pigweed plant response rating (0 to 100 scale) (pigweed [2]; [11]): 100 | Pigweed plant response rating (pigweed [2]; [14]): 90 | Plant response rating, Pigweed (pigweed [2]; [16]): 100 | Pigweed plant response rating (pigweed [2]; [15]): 90

CCn1nc(C(C)(C)C)cc1C(=O)Nc1cccc(OC(F)(F)C(F)F)c1 [Compound 333]
Plant response rating, Lambsquarters (lambsquarters; [3]): 95 | Plant response rating, Lambsquarters (lambsquarters; [4]): 100 | Plant response rating, Lambsquarters (lambsquarters; [12]): 100 | Plant response rating, Lambsquarters (lambsquarters; [13]): 100 | Lambsquarters plant response rating (lambsquarters; [17]): 100 | Plant response rating, Lambsquarters (lambsquarters; [18]): 80 | Plant response rating, Lambsquarters (lambsquarters; [19]): 80 | Plant response rating, Lambsquarters (lambsquarters; [8]): 60 | Plant response rating, Crabgrass, Large (large crabgrass; [3]): 20 | Plant response rating, Crabgrass, Large (large crabgrass; [4]): 70 | Plant response rating, Crabgrass, Large (large crabgrass; [12]): 100 | Plant response rating, Crabgrass, Large (large crabgrass; [13]): 100 | Crabgrass, Large plant response rating (large crabgrass; [17]): 10 | Plant response rating, Crabgrass, Large (large crabgrass; [18]): 5 | Plant response rating, Crabgrass, Large (large crabgrass; [19]): 5 | Plant response rating, Crabgrass, Large (large crabgrass; [8]): 0 | Plant response rating, Kochia (kochia; [3]): 80 | Plant response rating, Kochia (kochia; [4]): 100 | Plant response rating, Kochia (kochia; [12]): 100 | Plant response rating, Kochia (kochia; [13]): 100 | Kochia plant response rating (kochia; [17]): 100 | Plant response rating, Kochia (kochia; [18]): 100 | Plant response rating, Kochia (kochia; [19]): 100 | Plant response rating, Kochia (kochia; [8]): 90 | Oat, Wild plant response rating (wild oat; [14]): 40 | Oat, Wild plant response rating (wild oat; [15]): 60 | Plant response rating, Ragweed (common ragweed; [3]): 0 | Plant response rating, Ragweed (common ragweed; [12]): 50 | Plant response rating, Ragweed (common ragweed; [13]): 65 | Ragweed plant response rating (common ragweed; [17]): 50 | Plant response rating, Ragweed (common ragweed; [18]): 50 | Plant response rating, Ragweed (common ragweed; [19]): 30 | Plant response rating, Ragweed (common ragweed; [8]): 5 | Plant response rating, Goosegrass (goosegrass; [3]): 0 | Plant response rating, Goosegrass (goosegrass; [4]): 30 | Plant response rating, Goosegrass (goosegrass; [12]): 85 | Plant response rating, Goosegrass (goosegrass; [13]): 100 | Goosegrass plant response rating (goosegrass; [17]): 15 | Plant response rating, Goosegrass (goosegrass; [18]): 10 | Plant response rating, Goosegrass (goosegrass; [19]): 10 | Plant response rating, Goosegrass (goosegrass; [8]): 5 | Plant response rating, Pigweed (pigweed [1]; [3]): 100 | Plant response rating, Pigweed (pigweed [1]; [4]): 100 | Plant response rating, Pigweed (pigweed [1]; [12]): 100 | Plant response rating, Pigweed (pigweed [1]; [13]): 100 | Pigweed plant response rating (pigweed [1]; [17]): 100 | Plant response rating, Pigweed (pigweed [1]; [18]): 100 | Plant response rating, Pigweed (pigweed [1]; [19]): 100 | Plant response rating, Pigweed (pigweed [1]; [8]): 65 | Plant response rating (0 to 100 scale), Pigweed (pigweed [2]; 125 g ai/ha, 0 is no effect, 100 is complete control, preemergence): 90 | Pigweed plant response rating (pigweed [2]; [14]): 90 | Plant response rating, Pigweed (pigweed [2]; [16]): 100 | Pigweed plant response rating (pigweed [2]; [15]): 100
